Data set [1] concerns Candida albicans. In words: Test of antibacterial activity in vitro (bacteria-inhibition zone). The format is cell-based.
Data set [2] has as its system esterase. In words: Test of esterase hydrolysis in sheep blood serum (HPLC). The format is in vitro ADME. The procedure: Test of Esterase […]
Experiment drugs: the amphotericin B methyl pivalate prepared by example 1
Control drug: amphotericin B (standard product)
The stationary phase: Hypersil ODS2 5 um 4.6 mm×250 mm
The mobile phase: methanol: acetonitrile: EDTA-2Na (0.5 mmol)=60:20:20 flow rate: 1 ml/min
Detection system: ultraviolet detection, detection wavelength: 410 nm
Taking appropriate amount of the above mentioned amphotericin B, and amphotericin B methyl pivalate prepared by example 1, dissolving in a little dimethyl sulfoxide respectively, using pH7 phosphate buffer to dilute into solution which is equivalent to contain amphotericin B 280 Units per milliliter, taking 1 ml and using pH7 phosphate buffer to quantitatively dilute into solution which is equivalent to contain amphotericin B 2.8 μg/ml.
Again, preparing the solution according to the same method, adding 10% defibered sheep blood serum, using pH7 phosphate buffer to quantitatively dilute into solution which is equivalent to contain amphotericin B 2.8 μg/ml.
4. Mixing the amphotericin B methyl pivalate prepared by example 1 with sheep blood serum at 37° C. and culturing.
Referring to the test conditions of HPLC of example 25, wherein the mobile phase is acetonitrile: 0.05M ammonium acetate solution=60:40.

Data set [3] has as its system Candida mycoderma. Description: Test of antibacterial activity in vitro (bacteria-inhibition zone). The format is cell-based.
Data set [4] concerns Saccharomyces cerevisiae. The data set is described as above. The format is cell-based.
The mark [5] stands for this setting: 1.4 μg/ml after conversion, no serum.
Where [6] appears, read: 1.4 μg/ml after conversion, serum added (40% defibered sheep serum).
[7] abbreviates: 2.8 μg/ml after conversion, no serum.
[8] abbreviates: 2.8 μg/ml after conversion, serum added (40% defibered sheep serum).
Where [9] appears, read: 5.6 μg/ml after conversion, no serum.
Where [10] appears, read: 5.6 μg/ml after conversion, serum added (40% defibered sheep serum).

With amphotericin B methyl pivalate, the “diameter of the bacteria-inhibition zone, Candida albicans 0 h” value in data set [1] (setting [5]) is “+ (7-9 mm: +)”; in data set [1] (setting [6]), “+ (7-9 mm: +)”; in data set [1] (setting [7]), “++ (9-12 mm: ++)”; in data set [1] (setting [8]) it was “++ (9-12 mm: ++)”. The figures for the “diameter of the bacteria-inhibition zone, Candida albicans 6 h” value in data set [1] (setting [5]), in data set [1] (setting [6]) and in data set [1] (setting [7]) were “+ (7-9 mm: +)”, “++ (9-12 mm: ++)” and “++ (9-12 mm: ++)”, respectively. For the same substance, the results for the “diameter of the bacteria-inhibition zone, Candida albicans 24 h” value in data set [1] (setting [5]) and in data set [1] (setting [7]) were “+ (7-9 mm: +)” and “++ (9-12 mm: ++)”, respectively. Also, the “diameter of the bacteria-inhibition zone, Candida albicans 48 h” value in data set [1] (setting [5]) is recorded as “+ (7-9 mm: +)”; in data set [1] (setting [7]), “++ (9-12 mm: ++)”. In addition, the “hydrolysis by esterase to release the original drug, after 24 hours” value in data set [2] (10% defibered sheep blood serum, 37° C., 24 hours) is given as “most of the diester derivative is hydrolyzed by esterase to release amphotericin B”. Further, the “hydrolysis by esterase under sheep blood serum cultivation, release of the original drug” value in data set [2] (sheep blood serum, 37° C., 2, 6 and 24 hours) is listed as “gradually hydrolyzed by esterase”. Also, the “diameter of the bacteria-inhibition zone, Candida mycoderma 0 h” value in data set [3] (setting [5]) is “+ (7-9 mm: +)”; in data set [3] (setting [6]), “+ (7-9 mm: +)”; in data set [3] (setting [7]) it was “++ (9-12 mm: ++)”; in data set [3] (setting [8]), “++ (9-12 mm: ++)”. Moreover, the “diameter of the bacteria-inhibition zone, Candida mycoderma 6 h” value in data set [3] (setting [5]) is “+ (7-9 mm: +)”; in data set [3] (setting [6]), “++ (9-12 mm: ++)”; in data set [3] (setting [7]), “++ (9-12 mm: ++)”. In addition, the “diameter of the bacteria-inhibition zone, Candida mycoderma 24 h” value in data set [3] (setting [5]) is “+ (7-9 mm: +)”; in data set [3] (setting [7]), “++ (9-12 mm: ++)”. In addition, the figures for the “diameter of the bacteria-inhibition zone, Candida mycoderma 48 h” value in data set [3] (setting [5]) and in data set [3] (setting [7]) were “+ (7-9 mm: +)” and “++ (9-12 mm: ++)”, respectively. Also, the “diameter of the bacteria-inhibition zone, Saccharomyces cerevisiae 0 h” value is “+ (7-9 mm: +)” in data set [4] (setting [5]), “+ (7-9 mm: +)” in data set [4] (setting [6]), “++ (9-12 mm: ++)” in data set [4] (setting [7]) and “++ (9-12 mm: ++)” in data set [4] (setting [8]). The “diameter of the bacteria-inhibition zone, Saccharomyces cerevisiae 6 h” value in data set [4] (setting [5]) is given as “+ (7-9 mm: +)”; in data set [4] (setting [7]), “++ (9-12 mm: ++)”. Further, the “diameter of the bacteria-inhibition zone, Saccharomyces cerevisiae 24 h” value in data set [4] (setting [5]) is given as “+ (7-9 mm: +)”; in data set [4] (setting [7]), “++ (9-12 mm: ++)”. The “diameter of the bacteria-inhibition zone, Saccharomyces cerevisiae 48 h” value in data set [4] (setting [5]) is reported as “+ (7-9 mm: +)”; in data set [4] (setting [7]) it was “++ (9-12 mm: ++)”.

On to mycostatin ethyl acetate, for which, in data set [1] (setting [9]), the “diameter of the bacteria-inhibition zone, Candida albicans 0 h” value was “+ (7-9 mm: +)”; the “diameter of the bacteria-inhibition zone, Candida albicans 6 h” value is recorded as “+ (7-9 mm: +)”; the “diameter of the bacteria-inhibition zone, Candida albicans 24 h” value is “+ (7-9 mm: +)”; the “diameter of the bacteria-inhibition zone, Candida albicans 48 h” value is “+ (7-9 mm: +)”. Also, in data set [1] (setting [10]), the “diameter of the bacteria-inhibition zone, Candida albicans 0 h” value is on record as “+ (7-9 mm: +)”; the “diameter of the bacteria-inhibition zone, Candida albicans 6 h” value was “+ (7-9 mm: +)”; the “diameter of the bacteria-inhibition zone, Candida albicans 24 h” value is listed as “+ (7-9 mm: +)”; the “diameter of the bacteria-inhibition zone, Candida albicans 48 h” value is reported as “+ (7-9 mm: +)”. In data set [3] (setting [9]), the “diameter of the bacteria-inhibition zone, Candida mycoderma 0 h” value is “++ (9-12 mm: ++)”; the “diameter of the bacteria-inhibition zone, Candida mycoderma 6 h” value is “++ (9-12 mm: ++)”; the “diameter of the bacteria-inhibition zone, Candida mycoderma 24 h” value is “++ (9-12 mm: ++)”; the “diameter of the bacteria-inhibition zone, Candida mycoderma 48 h” value is recorded as “++ (9-12 mm: ++)”. The “diameter of the bacteria-inhibition zone, Candida mycoderma 0 h” value in data set [3] (setting [10]) is recorded as “++ (9-12 mm: ++)”. In data set [4] (setting [9]), the “diameter of the bacteria-inhibition zone, Saccharomyces cerevisiae 0 h” value is reported as “++ (9-12 mm: ++)”; the “diameter of the bacteria-inhibition zone, Saccharomyces cerevisiae 6 h” value is reported as “++ (9-12 mm: ++)”; the “diameter of the bacteria-inhibition zone, Saccharomyces cerevisiae 24 h” value was “++ (9-12 mm: ++)”; the “diameter of the bacteria-inhibition zone, Saccharomyces cerevisiae 48 h” value is “++ (9-12 mm: ++)”. Also, the “diameter of the bacteria-inhibition zone, Saccharomyces cerevisiae 0 h” value in data set [4] (setting [10]) was “++ (9-12 mm: ++)”.

Regarding mycostatin methyl pivalate, in data set [1] (setting [9]), the “diameter of the bacteria-inhibition zone, Candida albicans 0 h” value was “+ (7-9 mm: +)”; the “diameter of the bacteria-inhibition zone, Candida albicans 6 h” value was “+ (7-9 mm: +)”; the “diameter of the bacteria-inhibition zone, Candida albicans 24 h” value is listed as “+ (7-9 mm: +)”; the “diameter of the bacteria-inhibition zone, Candida albicans 48 h” value is given as “+ (7-9 mm: +)”. Besides, in data set [1] (setting [10]), the “diameter of the bacteria-inhibition zone, Candida albicans 0 h” value was “+ (7-9 mm: +)”; the “diameter of the bacteria-inhibition zone, Candida albicans 6 h” value is given as “+ (7-9 mm: +)”; the “diameter of the bacteria-inhibition zone, Candida albicans 24 h” value was “+ (7-9 mm: +)”; the “diameter of the bacteria-inhibition zone, Candida albicans 48 h” value is listed as “+ (7-9 mm: +)”. In data set [3] (setting [10]), the “diameter of the bacteria-inhibition zone, Candida mycoderma 0 h” value is “+ (7-9 mm: +)” and the “diameter of the bacteria-inhibition zone, Candida mycoderma 6 h” value was “++ (9-12 mm: ++)”. In data set [4] (setting [9]), the “diameter of the bacteria-inhibition zone, Saccharomyces cerevisiae 0 h” value is listed as “++ (9-12 mm: ++)”; the “diameter of the bacteria-inhibition zone, Saccharomyces cerevisiae 6 h” value is recorded as “++ (9-12 mm: ++)”; the “diameter of the bacteria-inhibition zone, Saccharomyces cerevisiae 24 h” value is “++ (9-12 mm: ++)”; the “diameter of the bacteria-inhibition zone, Saccharomyces cerevisiae 48 h” value is listed as “++ (9-12 mm: ++)”. Further, in data set [4] (setting [10]), the “diameter of the bacteria-inhibition zone, Saccharomyces cerevisiae 0 h” value is “+ (7-9 mm: +)” and the “diameter of the bacteria-inhibition zone, Saccharomyces cerevisiae 6 h” value is reported as “++ (9-12 mm: ++)”.
